Reference: ChEMBL document CHEMBL5046263, “Characterization of the Aminosugar Biosynthetic and Regulatory Genes of Vicenistatin in Monodonata labio-Associated Streptomyces parvus SCSIO Mla-L010” (J Nat Prod, 2022)
In brackets after ≈: the same amount, converted by molar mass.

Experiments:
[1] = tested on: Bacillus subtilis; test: Antibacterial activity against Bacillus subtilis BS01 assessed as bacterial growth inhibition; type: functional
[2] = tested on: Micrococcus luteus; test: Antibacterial activity against Micrococcus luteus ML01 assessed as bacterial growth inhibition; type: functional
[3] = tested on: Staphylococcus aureus; test: Antibacterial activity against Staphylococcus aureus ATCC 29213 assessed as bacterial growth inhibition; type: functional
[4] = tested on: Staphylococcus aureus; test: Antibacterial activity against methicillin-resistant Staphylococcus aureus shhs-E1 assessed as bacterial growth inhibition; type: functional
[5] = tested on: Staphylococcus aureus; test: Antibacterial activity against methicillin-resistant Staphylococcus aureus 16339 assessed as bacterial growth inhibition; type: functional
[6] = tested on: Staphylococcus aureus; test: Antibacterial activity against methicillin-resistant Staphylococcus aureus 745524 assessed as bacterial growth inhibition; type: functional
[7] = tested on: Staphylococcus aureus; test: Antibacterial activity against methicillin-resistant Staphylococcus aureus 16162 assessed as bacterial growth inhibition; type: functional
[8] = tested on: Staphylococcus aureus; test: Antibacterial activity against methicillin-resistant Staphylococcus aureus 718306 assessed as bacterial growth inhibition; type: functional
[9] = tested on: Staphylococcus aureus; test: Antibacterial activity against methicillin-resistant Staphylococcus aureus 6917 assessed as bacterial growth inhibition; type: functional
[10] = tested on: Mycolicibacterium smegmatis; test: Antibacterial activity against Mycobacterium smegmatis ATCC607 assessed as bacterial growth inhibition; type: functional
[11] = tested on: Helicobacter pylori; test: Antibacterial activity against Helicobacter pylori G27 assessed as bacterial growth inhibition; type: functional
[12] = tested on: Helicobacter pylori; test: Antibacterial activity against Helicobacter pylori 159 assessed as bacterial growth inhibition; type: functional
[13] = tested on: Candida albicans; test: Antifungal activity against Candida albicans C5 assessed as fungal growth inhibition; type: functional
[14] = tested on: Candida albicans; test: Antifungal activity against Candida albicans ATCC SC5314 assessed as fungal growth inhibition; type: functional
[15] = tested on: Cryptococcus neoformans; test: Antifungal activity against Cryptococcus neoformans ATCC4906 assessed as fungal growth inhibition; type: functional
[16] = tested on: MCF7; test: Cytotoxicity against human MCF7 cells assessed as reduction in cell viability after 72 hrs by MTT assay; type: functional, cell-based; settings: MCF7, 72 h
[17] = tested on: HepG2; test: Cytotoxicity against human HepG2 cells assessed as reduction in cell viability after 72 hrs by MTT assay; type: functional, cell-based; settings: HepG2, 72 h
[18] = tested on: HeLa; test: Cytotoxicity against human HeLa cells assessed as reduction in cell viability after 72 hrs by MTT assay; type: functional, cell-based
[19] = tested on: A549; test: Cytotoxicity against human A549 cells assessed as reduction in cell viability by after 72 hrs MTT assay; type: functional, cell-based; settings: A549, 72 h
[20] = tested on: RKO; test: Cytotoxicity against human RKO cells assessed as reduction in cell viability after 72 hrs by MTT assay; type: functional, cell-based
[21] = tested on: HL-60; test: Cytotoxicity against human HL-60 cells assessed as reduction in cell viability after 72 hrs by MTT assay; type: functional, cell-based; settings: HL-60, 72 h
[22] = Cytotoxicity against human L02 cells assessed as reduction in cell viability after 72 hrs by MTT assay; type: toxicity, cell-based
[23] = Cytotoxicity against human BEAS-2B cells assessed as reduction in cell viability after 72 hrs by MTT assay; type: toxicity, cell-based

| SMILES | MIC [1] [µg/mL] | MIC [2] [µg/mL] | MIC [3] [µg/mL] | MIC [4] [µg/mL] | MIC [5] [µg/mL] | MIC [6] [µg/mL] | MIC [7] [µg/mL] | MIC [8] [µg/mL] | MIC [9] [µg/mL] | MIC [10] [µg/mL] | MIC [11] [µg/mL] | MIC [12] [µg/mL] | MIC [13] [µg/mL] | MIC [14] [µg/mL] | MIC [15] [µg/mL] | IC50 [16] [nM] | IC50 [17] [nM] | IC50 [18] [nM] | IC50 [19] [nM] | IC50 [20] [nM] | further results |
| --- | --- | --- | --- | --- | --- | --- | --- | --- | --- | --- | --- | --- | --- | --- | --- | --- | --- | --- | --- | --- | --- |
| C/C1=C\C=C\CC[C@H](C)CNC(=O)/C=C/C=C/[C@H](C)[C@@H](O[C@H]2C[C@H](O)[C@H](N)[C@@H](C)O2)C/C=C(\C)C1 | 0.5 (≈ 1.03 µM) | 0.25 (≈ 0.514 µM) | 0.13 (≈ 0.267 µM) | 0.25 (≈ 0.514 µM) | 0.5 (≈ 1.03 µM) | 0.25 (≈ 0.514 µM) | 0.25 (≈ 0.514 µM) | 0.25 (≈ 0.514 µM) | 0.13 (≈ 0.267 µM) | 4 (≈ 8.22 µM) | 1 (≈ 2.05 µM) | 1 (≈ 2.05 µM) | 2 (≈ 4.11 µM) | 1 (≈ 2.05 µM) | 2 (≈ 4.11 µM) | 1160 | 2090 | 1290 | 1330 | 2100 | IC50 [21]: 890 nM; IC50 at 72 h [22]: 5360 nM; IC50 at 72 h [23]: 3230 nM |
| C[C@@H]1[C@H](O)[C@@H](C)/C=C/C=C/C=C/C=C/C=C/C=C/C=C/[C@H](O[C@@H]2O[C@H](C)[C@@H](O)[C@H](N)[C@@H]2O)C[C@@H]2O[C@](O)(C[C@@H](O)C[C@@H](O)[C@H](O)CC[C@@H](O)C[C@@H](O)CC(=O)O[C@H]1C)C[C@H](O)[C@H]2C(=O)O [AMPHOTERICIN B] | – | – | – | – | – | – | – | – | – | – | – | – | 1 (≈ 1.08 µM) | 1 (≈ 1.08 µM) | 2 (≈ 2.16 µM) | – | – | – | – | – | – |
| CC1(C)S[C@@H]2[C@H](NC(=O)[C@H](N)c3ccccc3)C(=O)N2[C@H]1C(=O)O [AMPICILLIN] | – | – | – | – | – | – | – | – | – | 64 (≈ 183 µM) | 4 (≈ 11.4 µM) | 4 (≈ 11.4 µM) | – | – | – | – | – | – | – | – | – |
| CN[C@H](CC(C)C)C(=O)N[C@H]1C(=O)N[C@@H](CC(N)=O)C(=O)N[C@H]2C(=O)N[C@H]3C(=O)N[C@H](C(=O)N[C@H](C(=O)O)c4cc(O)cc(O)c4-c4cc3ccc4O)[C@H](O)c3ccc(c(Cl)c3)Oc3cc2cc(c3O[C@@H]2O[C@H](CO)[C@@H](O)[C@H](O)[C@H]2O[C@H]2C[C@](C)(N)[C@H](O)[C@H](C)O2)Oc2ccc(cc2Cl)[C@H]1O [VANCOMYCIN] | 0.13 (≈ 0.0897 µM) | 0.13 (≈ 0.0897 µM) | – | – | – | – | – | 0.25 (≈ 0.173 µM) | – | – | – | – | – | – | – | – | – | – | – | – | – |
| CN[C@H]1[C@@H](O)C[C@H](O[C@H]2C/C=C(\C)C/C(C)=C/C=C/CC[C@H](C)CNC(=O)/C=C/C=C/[C@@H]2C)O[C@@H]1C [VICENISTATIN] | 0.13 (≈ 0.26 µM) | 0.06 (≈ 0.12 µM) | 0.06 (≈ 0.12 µM) | 0.13 (≈ 0.26 µM) | 0.06 (≈ 0.12 µM) | 0.06 (≈ 0.12 µM) | 0.13 (≈ 0.26 µM) | 0.13 (≈ 0.26 µM) | 0.06 (≈ 0.12 µM) | > 64 | 1 (≈ 2 µM) | 1 (≈ 2 µM) | 4 (≈ 7.99 µM) | 4 (≈ 7.99 µM) | 2 (≈ 3.99 µM) | 800 | 2010 | 1380 | 760 | 2330 | IC50 [21]: 640 nM; IC50 at 72 h [22]: 890 nM; IC50 at 72 h [23]: 1400 nM |
